From publication PMC11056026, “The Evaluation of Teleost-Derived Antimicrobial Peptides Against Neisseria gonorrhoeae” (Cureus, 2024)
Where two headings read alike, the source gives them in different places. Residues, ends and D or L forms follow the SMILES beside them. No end group written: not given here.

Assays:
[1] = test system: Neisseria gonorrhoeae MS11 strain; assay: Antibiotic susceptibility testing, disk diffusion (CLSI); type: cell-based; design: key: R, resistant; I, intermediate; S, susceptible; details: CLSI criteria, 24 h, 37°C, 5% CO2
Method: (§1) Briefly, the overnight colonies (16-20 hours) were suspended and diluted in GCP broth to a concentration of optical density (OD) = 0.1 at 650 nm. The bacterial suspension was then plated onto GC agar plates using swabs, and the disks were placed on the bacterial lawn with sterile tweezers. The plates were incubated at 37°C with 5% CO2 for 24 hours. The diameter of the inhibition zone was measured to determine the susceptibility according to the criteria recommended by the CLSI standard.

[2] = test system: WHO gonococcal reference strain Z (WHO Z); assay: as above; type: cell-based, Neisseria gonorrhoeae; design: key: R, resistant; I, intermediate; S, susceptible; details: CLSI criteria, 24 h, 37°C, 5% CO2
Method: as §1

[3] = test system: Neisseria gonorrhoeae MS11; assay: Transmission electron microscopy of treated GC; type: cell-based; details: AMP 10 μg/mL or azithromycin 0.5 μg/mL, four hours
Excerpt: The bars represented the means of each group with standard deviations.

[4] = test system: Neisseria gonorrhoeae MS11 adherence to ME180 endocervical epithelial cells; assay: Adherence assay of GC to ME180 cells; type: cell-based; details: MS11 on ME180 cells, azithromycin 0.5 μg/mL, three hours
Method: Cells were then lysed with 1% saponin in sterile phosphate-buffered saline (PBS) and spread onto the GCK agar plate. The number of adherent GC was counted to determine the effect of AMP.
Non-treated GC was served as control (Ct).
To assess the effects of AMP on adherence, MS11 was inoculated onto ME180 cells in the presence or absence of AMP for three hours. The cells were then collected and plated on GCK agar. Adherent GC were determined by colony counts. Azithromycin was used as a control for comparison.

[5] = test system: Neisseria gonorrhoeae MS11 strain; details: 24 h
Method: (§2) The synthetic AMP (Table 1) were purchased (Mission Bio, Taipei, Taiwan), and the inhibition activity test against GC was adapted from Bergman et al.. Briefly, GC were suspended in GCP broth to a concentration of 105 colony-forming units (CFU)/mL, and 180 μL of this suspension was added to each well of a 96-well plate with 20 μL peptide solution at various concentrations. The final concentration of AMP in each well ranged from 0.08 to 20 μg/mL. The samples were incubated at 37°C with 5% CO2 for 24 hours. After the incubation, 10 μL of the suspension from each well was spotted on GCK agar plates.

[6] = test system: WHO gonococcal reference strain Z (WHO Z); details: GCP broth, 10^5 CFU/mL, 24 h, 37°C, 5% CO2, lowest concentration reducing >=90% of bacteria vs non-AMP control, means of three independent experiments
Method: as §2

Listeria monocytogenes = details: cited from earlier work
Excerpt: (§3) [26], indicating the low efficacy of TH1-5. Piscidins were reported widely as the broadest teleost-derived AMP against several gram-positive and gram-negative species.

Vibrio spp. = details: 100 μg/mL or above; cited from earlier work
Excerpt: as §3

[7] = test system: ME180 endocervical epithelial cells; details: 24 hours; for Cell survival of ME180 cells vs non-treatment control (CCK-8): 10 μg/mL AMP, three independent experiments
Method: ME180 cells were seeded into 96-well microtiter plates at a 5 × 10^3 cells/well density and incubated for 24 hours. A final concentration of 10 μg/mL of AMP and 0.1% of positive control Triton-X were added to the well and incubated for 24 hours. Next, the Cell Counting Kit-8 (CCK-8) solution (Tools Biotech Inc., New Taipei City, Taiwan) was added and incubated for one hour. The absorbance at 450 nm was measured in each well, and the cytotoxicity level was analyzed according to the manufacturer's instructions.
GC colonization and infection only start after the GC's adherence to epithelial cells in the reproductive tract. Thus, adherence plays a crucial role in the initial colonization of GC on mucosal surfaces. […] Since these AMP may also affect epithelial cell viability, examining the effects of three AMP on both epithelial cells, and GC adherence is needed. To examine the effects of AMP on epithelial cells, ME180 cells were incubated with or without 10 μg/mL AMP for 24 hours, and the CCK-8 cell viability assay was conducted. Triton-X, a membrane-disrupting agent at a final concentration of […], was administered as a positive control.
ME180 cells were grown on a 96-well plate, and 10 μg/mL of designated AMP was added with or without inoculating MS11. (A) To measure cell cytotoxicity, cells with or without AMP or 0.1% Triton-X were incubated for 24 hours, and CCK-8 assay was performed to determine the cell survival rate. (B) To evaluate GC adherence, cells with MS11 were incubated for three hours to determine the adherent GC. GC treated with 0.5 μg/mL of azithromycin (AZI) served as a positive control. Non-treated GC was served as control (Ct). The bars represented the means of each group with standard deviations. Statistical significance was determined using a one-way ANOVA followed by post hoc Dunnett's test.

HeLa cells = details: cited from earlier work
HT1080 cells = details: HT1080, 15 μg/mL or more; cited from earlier work

For `CC[C@H]1OC(=O)[C@H](C)[C@@H](O[C@H]2C[C@@](C)(OC)[C@@H](O)[C@H](C)O2)[C@H](C)[C@@H](O[C@@H]2O[C@H](C)C[C@H](N(C)C)[C@H]2O)[C@](C)(O)C[C@@H](C)CN(C)[C@H](C)[C@@H](O)[C@]1(C)O` [Azithromycin], the Antibiotic susceptibility [1] was “S”, the Antibiotic susceptibility [2] was “R” and the “Morphological and structural changes of GC (TEM)” value [3] was “intact membranes”. For the same compound, the “Reduction of adherent GC compared to the AMP-treated group” value [4] was “significantly higher reduction”.

For `CO/N=C(\C(=O)N[C@@H]1C(=O)N2C(C(=O)O)=C(CSc3nc(=O)c(=O)[nH]n3C)CS[C@H]12)c1csc(N)n1` [Ceftriaxone], the Antibiotic susceptibility [1] was “S” and the Antibiotic susceptibility [2] was “I”.

For `CC[C@H](C)[C@H](NC(=O)CNC(=O)[C@@H]1CCCN1C(=O)[C@@H](NC(=O)[C@H](CS)NC(=O)[C@H](CS)NC(=O)CNC(=O)[C@H](CS)NC(=O)[C@H](CS)NC(=O)[C@H](Cc1ccccc1)NC(=O)[C@H](CCCNC(=N)N)NC(=O)[C@H](CS)NC(=O)[C@H](CCCCN)NC(=O)[C@@H](NC(=O)CN)[C@@H](C)CC)[C@@H](C)O)C(=O)N[C@@H](CS)C(=O)NCC(=O)N[C@H](C(=O)N[C@@H](CS)C(=O)N[C@@H](CS)C(=O)N[C@@H](CCCNC(=N)N)C(=O)N[C@@H](Cc1ccccc1)C(=O)O)C(C)C` [TH1-5] (H-GIKCRFCCGCCTPGICGVCCRF-OH; N-terminus and C-terminus assumed), the “MIC of AMP” value ([5]; MS11 strain, GCP broth, 10^5 CFU/mL, 37°C, 5% CO2, lowest concentration reducing >=90% of bacteria vs non-AMP control, means of three independent experiments) is given as over 10 µg/mL, the “MIC of AMP” value [6] is given as over 20 µg/mL and the “Concentration exhibiting antibacterial activity” value (Listeria monocytogenes) is given as at least 100 µg/mL. The Antibacterial activity (Vibrio spp.) was “not”.

In the case of `CC(C)(C)CC(C)(C)c1ccc(OCCO)cc1` [Triton-X, reference compound], the “Decrease in cell survival of ME180 cells (CCK-8)” value ([7]; positive control, final concentration of 0.01% (0.1% elsewhere in the source)) is reported as 88%.

With “FFHHIFRGIVHVGKTIHRLVTG [PIS] [listing 1 of 2 here]” the “MIC of AMP” value [6] was 10 µg/mL.

In the case of “FFHHIFRGIVHVGKTIHRLVTG [PIS] [listing 2 of 2 here]”, the “Cell survival of ME180 cells vs non-treatment control (CCK-8)” value [7] is reported as “No significant difference”.

With “FIHHIIGGLFSAGKAIHRLIRRRRR [TP4] [listing 1 of 2 here]” the “MIC of AMP” value [6] was 10 µg/mL.

In the case of “FIHHIIGGLFSAGKAIHRLIRRRRR [TP4] [listing 2 of 2 here]”, the “Cell survival of ME180 cells vs non-treatment control (CCK-8)” value [7] is reported as “No significant difference”.

In the case of FIHHIIGGLFSVGKHIHSLIHGH [TP3], the “MIC of AMP” value [5] is reported as over 10 µg/mL and the “MIC of AMP” value [6] is reported as over 20 µg/mL.

For Pardaxin, the Concentration inhibiting cells (HeLa cells) is given as at least 15 µg/mL and the Inhibition of cells (HT1080 cells) is given as “not”.
